Values quoted from earlier work as cited in patent publication EP3913370A1, “METHOD FOR DIAGNOSING CARCINOMAS USING IRGD AS A TUMOR MARKER BOOSTER” (Piiper, Albrecht, priority 2020, dated 2021).

Experiments:
[1] = in vivo
[2] = human, in vivo

N=C(N)NCCC[C@@H]1NC(=O)[C@@H](N)CSSC[C@@H](C(=O)O)NC(=O)[C@H](CC(=O)O)NC(=O)[C@@H]2CCCN2C(=O)CNC(=O)[C@H](CCCCN)NC(=O)[C@H](CC(=O)O)NC(=O)CNC1=O [iRGD, CRGDKGPDC (SEQ ID No. 1)]
toxicity associated with administration [1]: no toxicity
toxicity in humans [2]: low toxicity
